Assays:
mauvaises herbes [1] = format: in vivo; conditions: post-emergence, 4000 g/ha
Source text: (§1) Des quantités appropriées des composés d'essai ont été dissoutes dans de l'acétone pour obtenir des solutions équivalant à des taux d'application de 250, 1000 ou 4000 g de composé d'essai par hectare (g/ha).
Les mauvaises herbes et les plantes cultivées ont été semées directement dans du compost de mise en pot John Innes dans des pots de 75 mm de profondeur et 70 mm de côté, sauf en ce qui concerne l'espèce du genre Amaranthus qui a été repiquée au stade de jeunes plants de semis et transférée dans les pots une semaine avant plulvérisation. Puis les plantes ont été cultivées dans la serre jusqu'à ce qu'elles soient prêtres à subir une pulvérisation avec les composés d'essai. Le nombre de plantes par pot étaient les suivants :
Les composés d'essai ont été appliqués aux plantes de la manière décrite dans le paragraphe (a). Un seul pot de chaque espèce de plante cultivée et de chaque espèce de mauvaise herbe a été attribué à chaque traitement, en association avec des témoins n'ayant pas subi de pulvérisation et des témoins ayant subi une pulvérisation avec de l'acétone seule.
Après traitement, les pots ont été maintenus dans une serre et ont été arrosés une fois par aspersion au bout de 24 heures, puis par sous - irrigation contrôlée. L'évaluation visuelle des dégâts infligés aux plantes cultivées et de la destruction des mauvaises herbes a été effectué 20 à 24 jours après pulvérisation. Les résultats ont été exprimés en pourcentage de réduction de croissance ou d'endommagement des plantes cultivées ou des mauvaises herbes, comparativement aux plantes présentes dans les pots témoins.

mauvaises herbes [2] = assay: Procedure 2 d): weed control, pre-emergence; format: in vivo; conditions: 4000 g/ha (procédé 2D), visual rating 20 to 24 days after spraying, vs control pots
Source text: as §1
Les graines ont été semées dans des pots en matière plastique de 70 mm de côté et 75 mm de profondeur, dans de la terre non stérile provenant de Boarded Barns Farm ou un type de terre similaire provenant d'une source convenable. Les quantités de graines par pot étaient les suivantes :
Les composés de la présente invention ont été appliqués à la surface du sol, contenant les semences, de la manière décrite dans le paragraphe (a). Un seul pot de chaque plante cultivée et de chaque mauvaise herbe a été attribué à chaque traitement, en association avec des témoins n'ayant pas subi de pulvérisation et des témoins ayant subi une pulvérisation avec de l'acétone seule. Après traitement, les pots ont été maintenus dans une serre et ont été arrosés par aspersion pendant 3 jours, puis par une sous- irrigation controlée. L'évaluation visuelle des dégats infligés aux plantes cultivées a été effectuée 20 à 24 jours après pulvérisation. Les résultats ont été exprimés en pourcentage de réduction de croissance ou d'endommagement des plantes cultivées ou des mauvaises herbes, comparativement aux plantes présentes dans les pots témoins.

Structure (SMILES) | destruction d'une ou plusieurs des espèces de mauvaises herbes (mauvaises herbes [1]) | réduction de la croissance d'une ou plusieurs des espèces de mauvaises herbes (mauvaises herbes [2])
COc1cccc2c1nc(-c1ncccc1C(=O)O)n2S(=O)(=O)N(C)C [compound 90] | ≥ 90% | ≥ 90%
Cc1ccc2c(nc(-c3ncccc3C(=O)O)n2S(=O)(=O)N(C)C)c1C [compound 91] | ≥ 90% | ≥ 90%
Cc1ccc(C(=O)O)c(-c2nc3ccccc3n2S(=O)(=O)N(C)C)n1 [compound 93] | ≥ 90% | ≥ 90%
C#CCOC(=O)c1cccnc1-c1nc2ccccc2n1S(=O)(=O)N(C)C [compound 99] | ≥ 90% | ≥ 90%
CCCCCCOC(=O)c1cccnc1-c1nc2ccccc2n1S(=O)(=O)N(C)C [compound 103] | ≥ 90% | ≥ 90%
